We go through three compounds from the NIST ThermoML archive (doi:10.1016/j.fluid.2015.07.037).

± gives the expanded uncertainty stated by the source.

Data set [1] is described as follows: Molar enthalpy of transition or fusion. The note with it: Crystal; DSC.
The conditions of data set [2]: Crystal; DTA.

As to `C[C@H](N)[C@H](O)c1cccc(O)c1.O=C(O)[C@H](O)[C@@H](O)C(=O)O`, in data set [1], the “Molar enthalpy of transition or fusion” value is 18.5 ± 0.382 kcal/mol. Also, the Normal melting temperature in data set [2] stood at 179.54 ± 0.41 °C.
On to `CC(C)NCC(O)c1ccc(O)c(O)c1.Cl` (stereo unspecified), for which the “Molar enthalpy of transition or fusion” value in data set [1] was 19.1 ± 0.382 kcal/mol. In addition, the Normal melting temperature in data set [2] came out at 170.22 ± 0.41 °C.
In the same order, the values of `CNCC(O)c1ccc(O)cc1` (stereo unspecified) [synephrine] are 23.8 ± 0.478 kcal/mol and 190.38 ± 0.41 °C.
